Test results from patent US5502057A, “Polysubstituted pyridines useful for treating lipoproteinanaemia and arteriosclerosis” (Bayer Aktiengesellschaft, priority 1988, dated 1996).
Where a name gives a salt, the structure may show the parent alone.

Tested on: healthy beagle dogs
Test: Subchronic action on blood cholesterol values of dogs (feeding experiment)
Format: in vivo, dog
Conditions: 8 mg/kg p.o. daily, after 2-week administration, cholestyramine (4 g/100 g of feed) in feed, compared with serum cholesterol before the administration period
Protocol: The subchronic action of the disubstituted pyridines on blood cholesterol values of dogs was tested in feeding experiments extending over several weeks. For this, the substance to be investigated was given p.o. once daily in a capsule to healthy beagle dogs together with the feed over a time period of several weeks. In addition, during the entire experimental period, i.e. before, during and after the administration period, the substance cholestyramine (4 g/100 g of feed) to be investigated was mixed with the feed as the […] sequestrant. Twice weekly, venous blood was taken from the dogs and the serum cholesterol was determined enzymatically. The serum cholesterol values during the administration period were compared with the serum cholesterol values before the administration period (controls).

With `CC(C)c1nc(C(C)C)c(/C=C/C(O)CC(O)CC(=O)O)c(-c2ccc(F)cc2)c1/C=C/C(O)CC(O)CC(=O)O` (stereo not shown) [Na salt of Example 8, 2,6-diisopropyl 4-(4-fluorophenyl)-3,5-di-(sodiumerythro-(E)-3,5-dihydroxy-hept-6-enoat-7-yl)-pyridine] as the compound, how does the “Lowering of the serum cholesterol” value read?
Its value is “about 22.4%”.
